{"source": "patent US4818770A", "about": "“Prevention of a plant disease by specific inhibition of fungal polyamine biosynthesis” (priority 1986, dated 1989)", "system": "Collectotrichum lagenarium", "experiment": "Radial growth in vitro of cucumber anthracnose fungus", "assay_type": "cell-based, Colletotrichum lagenarium", "protocol": "See Table 15 for the effect of DFMO on radial growth in vitro on cucumber anthracnose fungus (Colletcotrichum lagenarium). The cucumber anthracnose fungus growing in Czapek's agar in Petri plates is not affected by DFMO up to 5 mM.", "data": [{"smiles": "NCCCC(N)(C(=O)O)C(F)F", "note": "(racemic) [DFMO, DL-alpha-difluorimethylornithine]", "values": [{"measurement": "Radial growth (cm)", "setting": "0.10 mM", "value": 4.5, "unit": "cm"}, {"measurement": "Radial growth (cm)", "setting": "0.25 mM", "value": 4.5, "unit": "cm"}, {"measurement": "Radial growth (cm)", "setting": "0.50 mM", "value": 4.5, "unit": "cm"}, {"measurement": "Radial growth (cm)", "setting": "0.65 mM", "value": 4.4, "unit": "cm"}, {"measurement": "Radial growth (cm)", "setting": "1.00 mM", "value": 4.0, "unit": "cm"}, {"measurement": "Radial growth (cm)", "setting": "5.00 mM", "value": 3.8, "unit": "cm"}, {"measurement": "inhibition of growth at 650 µM", "setting": "Colletotrichum orbiculare, 0.65 mM, read-out: Percent control", "value": 2, "unit": "%"}, {"measurement": "inhibition of growth at 1000 µM", "setting": "Colletotrichum orbiculare, 1.00 mM, read-out: Percent control", "value": 7, "unit": "%"}, {"measurement": "inhibition of growth at 5000 µM", "setting": "Colletotrichum orbiculare, 5.00 mM, read-out: Percent control", "value": 16, "unit": "%"}, {"measurement": "effect on fungus growing in Czapek's agar", "setting": "up to 5 mM", "value": "not affected"}]}]}
